Experimental data published in patent US6984643B2, “2,5-substituted pyrimidine derivatives-CCR-3 receptor antagonists” (Roche Palo Alto LLC, priority 2002, dated 2006).

Biological target: T1, CCR-3 receptor (Homo sapiens, UniProt P51677)
T1 construct: expressed in transfected cells; host or cells: L1.2 (murine pre-B lymphoma line)
T1 sequence (P51677 1-355): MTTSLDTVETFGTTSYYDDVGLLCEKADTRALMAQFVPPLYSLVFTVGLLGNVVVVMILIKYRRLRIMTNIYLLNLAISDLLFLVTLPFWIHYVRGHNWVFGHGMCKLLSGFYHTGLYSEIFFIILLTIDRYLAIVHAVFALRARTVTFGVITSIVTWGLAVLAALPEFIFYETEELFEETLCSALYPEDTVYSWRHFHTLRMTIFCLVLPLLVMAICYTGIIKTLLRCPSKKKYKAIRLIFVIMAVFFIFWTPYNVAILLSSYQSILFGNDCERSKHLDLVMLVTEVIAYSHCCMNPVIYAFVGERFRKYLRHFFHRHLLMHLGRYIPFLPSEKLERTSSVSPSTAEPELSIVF
Experiment: CCR-3 Receptor Binding Assay in vitro (inhibition of 125I eotaxin binding to CCR-3 L1.2 transfectant cells)
Settings: concentration reducing 125I-eotaxin binding to CCR-3 L1.2 transfected cells by 50%; read-out: CCR-3 IC50
Procedure: The CCR-3 antagonistic activity of the compounds of the invention was determined by their ability to inhibit the binding of ^125I eotaxin to CCR-3 L1.2 transfectant cells (see Ponath, P. D. et al., J. Exp. Med., Vol. 183, 2437-2448, (1996)).
The assay was performed in Costar 96-well polypropylene round bottom plates. Test compounds were dissolved in DMSO and then diluted with binding buffer (50 mM HEPES, 1 mM CaCl2, 5 mM MgCl2, 0.5% bovine serum albumin (BSA), 0.02% sodium azide, pH 7.24) such that the final DMSO concentration was 2%. Each well was filled with 25 μl of the test solution or only buffer with DMSO (control samples) followed by the addition of 25 μl of ^125I-eotaxin (100 pmol) (NEX314, New England Nuclear, Boston, Mass.) and 1.5×10^5 of the CCR-3 L1.2 transfected cells in 25 μl binding buffer. The final reaction volume was 75 μl.
After incubating the reaction mixture for 1 h at room temperature, the reaction was terminated by filtering the reaction mixture through polyethylenimine treated Packard Unifilter GF/C filter plate (Packard, Chicago, Ill.). The filters were washed four times with ice cold wash buffer containing 10 mM HEPES and 0.5M sodium chloride (pH 7.2) and dried at 65° C. for approximately 10 min. 25 μl/well of Microscint-20™ scintillation fluid (Packard) was added and the radioactivity retained on the filters was determined by using the Packard TopCount™.
The IC50 value (concentration of test compound required to reduce ^125I-eotaxin binding to the CCR-3 L 1.2 transfected cells by 50%) for compounds in Table I of the invention was between 0.02 and 200 μM, preferably between 0.02 and 10 μM.

IC50: 81 nM
Compound: COc1ccc(-c2cnc(SCC(=O)NCC3CCCN(Cc4cc(Cl)c(Cl)s4)C3)nc2)cc1OC (stereo not shown) [Compound 64, N-[1-(4,5-dichloro-thiophen-2-ylmethyl)-piperidin-3-ylmethyl]-2-[5-(3,4-dimethoxy-phenyl)-pyrimidin-2-ylsulfanyl]-acetamide]
